Measured values taken from article PMC10539439 (Pharmacological Reports, 2023).
Several values for one entry are separate records, joined by “and”; a condition that tells them apart may be missing. Equal values may be shown once.

Tests used:
α2A-adrenoceptor = molecular target: T1, α2A-adrenoceptor (Homo sapiens, UniProt P08913); test: Intrinsic activity, Tango beta-lactamase reporter assay; format: cell-based; conditions: ADRAA2A
T1 sequence (P08913 1-465): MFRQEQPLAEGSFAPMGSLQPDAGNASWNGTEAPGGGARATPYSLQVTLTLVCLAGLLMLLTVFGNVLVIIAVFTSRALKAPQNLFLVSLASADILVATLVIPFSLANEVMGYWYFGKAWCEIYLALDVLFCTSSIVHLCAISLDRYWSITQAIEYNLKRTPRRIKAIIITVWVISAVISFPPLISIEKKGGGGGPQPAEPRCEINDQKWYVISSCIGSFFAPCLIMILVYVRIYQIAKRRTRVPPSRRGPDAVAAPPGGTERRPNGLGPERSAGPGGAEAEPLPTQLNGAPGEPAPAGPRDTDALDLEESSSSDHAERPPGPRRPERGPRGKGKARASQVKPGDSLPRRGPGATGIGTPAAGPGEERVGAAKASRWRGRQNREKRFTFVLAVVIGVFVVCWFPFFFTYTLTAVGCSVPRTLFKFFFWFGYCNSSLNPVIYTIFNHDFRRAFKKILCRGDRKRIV
Method: The intrinsic activity at α2A-adrenoceptor was assessed by the Tango assay technology that uses a mammalian-optimized beta-lactamase (bla) reporter gene combined with an FRET-enabled substrate to provide reliable and sensitive detection in cells. Cells are loaded with an engineered fluorescent substrate containing two fluorophores, coumarin, and fluorescein. In the absence of bla expression, the substrate molecule remains intact. In this state, excitation of the coumarin results in a transfer of fluorescence resonance energy to the fluorescein moiety and emission of green fluorescent light. However, in the presence of bla expression, the substrate is cleaved, separating the fluorophores and disrupting energy transfer. Excitation of the coumarin in the presence of bla enzyme activity results in a blue fluorescence signal.
Intrinsic activity assay was performed according to the manufacturer of the assay kit (Invitrogen, Life Technologies). Cells were harvested and resuspended in an assay medium at a density of 312,500 cells/ml. 32 μL per well of cell suspension was added to the test compound wells, the unstimulated control wells, and the stimulated control wells, and incubated for 16–24 h. To perform an agonist assay, 8 μL of 5 × of agonist in the assay medium was added to the cells. […] Then, the agonist and antagonist plates were incubated in a humidified incubator at 37 °C/5% CO2 for 5 h. After the incubation, 8 μL of LiveBLAzer™-FRET B/G substrate mixture (CCF4-AM) was loaded into cells in the absence of direct strong lighting, covered, and incubated at room temperature for 2 h.

[1] = Pharmacokinetics in plasma after ip administration; format: in vivo, rat; conditions: plasma; for concentration in plasma (single sample): individual samples 1-3
Method: (§1) For the pharmacokinetic study, a group of 56 adult male rats (Wistar, 220–250 g, […]) were used in the experiment. Animals were purchased from the Animal House of the Faculty of Pharmacy of Jagiellonian University Medical College, Krakow, Poland. During the habituation period, the groups of 4 rats were kept in a plastic cage at a controlled room temperature (22 ± 2 ℃), humidity (55 ± 10%), full-spectrum cold white light (350–400 lx), in 12 h light/dark cycles (the lights on at 7:00 am, and off at 19:00 pm), and had free access to standard laboratory pellet and tap water. […] These were then given through an intraperitoneally injections (ip) at a dose of 0.3 mg/kg and 0.4 mg/kg, respectively. Blood samples were collected at 0 min (predose), 5 min, 15 min, 30 min, 60 min, 120 min, and 240 min after compound administration. Blood and brain samples were collected under general anesthesia induced by ip injections of 50 mg/kg ketamine plus 8 mg/kg xylazine. Blood samples were taken in heparinized tubes and immediately centrifuged at 3500 rpm for 10 min, and plasma was collected. Brain and plasma samples were immediately frozen at – 80 ℃ for LC/MS/MS analysis. All experimental procedures were carried out according to EU Directive 2010/63/EU and approved by the I Local Ethics Committee for Animal Experiments of the Jagiellonian University in Krakow, Poland (No. 94/2016).
(§2) The pharmacokinetic parameters were calculated using a non-compartmental approach from the average concentration values, using Phoenix WinNonlin software (Certara, Princeton, NJ 08540 USA). The first-order elimination rate constant (λz) was calculated by linear regression of time versus log concentration. Next, the area under the mean plasma and the concentration in the brain versus the time curve (AUC0→t) were estimated using the log-linear trapezoidal rule (Eq. 1), where Cn is the concentration of the last sampling of each compound1 AUC0→t=∑i=1n(Ci+Ci+1)/2·ti+1-ti+Cn/λz.
The area under the first-moment curve (AUMC0→t) was estimated by calculating of the total area under the first-moment curve using Eq. 2, where tn is the time of last sampling2 AUMC0→t=∑i=1n(ti·Ci+ti+1·Ci+1)/2·ti+1-ti+(tn·Cn)/λz+Cn/λz2.
Mean residence time (MRT, Eq. 3) was calculated as3 MRT=AUMC0→t/AUC0→t.
Total clearance (ClT, Eq. 4) was calculated as4 C1T=F·Di.p./AUC0→t.
(§3) The quantification of compounds in plasma and brain samples was performed using the Sciex API 3200 triple quadrupole mass spectrometer (Concord, Ontario, Canada) equipped with an electrospray (ESI) ionization interface. This instrument was coupled to an Elite LaChrom (Hitachi, USA) HPLC system. Data acquisition and processing were performed using Sciex Analyst 1.5.2 data collection and integration software. After preparation, the samples were injected (20 µL) onto XBridge C18 (2.1 mm × 30 mm, 3.5 μm, Waters, Milford, Massachusetts, USA) analytical column. The mobile phase consisted of 0.1% formic acid in acetonitrile (A) and 0.1% formic acid in water (B) was delivered in a gradient elution starting with 90% of eluent B, increasing for 2 min to 90% of eluent A, maintained for 3 min, and then returned for 5 min to 90% of eluent B, and maintained 90% of eluent B during 5 min at a flow rate of 300 µL/min. The total analysis time was 10 min. […] The ion spray source settings were as follows: spray voltage: 5.5 kV, heater temperature: 400 °C, curtain gas: 10 psi, source gas 1: 20 psi, and source gas 2: 20 psi.
Further dilutions were performed using the same solvent to prepare working standard solutions of the analyte at the following concentrations: 0.025, 0.05, 0.1, 0.25, 0.5, 1.0, 2.5, 5.0, 10, 25, and 50 µg/mL for calibration curve samples (CC) and 0.025, 0.075, 2.2, and 4.5 µg/mL for quality control samples (QC). […]

[2] = Distribution in brain after ip administration; format: in vivo, rat; conditions: brain; for concentration in brain (single sample): individual samples 1-3
Method: as §1, with “Poland.” for “Poland. During the habituation period, the groups of 4 rats were kept in a plastic cage at a controlled room temperature (22 ± 2 ℃), humidity (55 ± 10%), full-spectrum cold white light (350–400 lx), in 12 h light/dark cycles (the lights on at 7:00 am, and off at 19:00 pm), and had free access to standard laboratory pellet and tap water.”
as §2, §3
Further dilutions were performed using the same solvent to prepare working standard solutions of the analyte at the following concentrations: 0.025, 0.05, 0.1, 0.25, 0.5, 1.0, 2.5, 5.0, 10, 25, and 50 µg/mL for calibration curve samples (CC) and 0.025, 0.075, 2.2, and 4.5 µg/mL for quality control samples (QC). To prepare samples for calibration curve or quality control samples, 45 µL of the matrix (plasma or brain homogenate) was added with 5 µL of internal standard solution (1 µg/mL) obtaining the final concentration of 100 ng/mL and 5 µL of standard working solutions at the needed CC or QC concentration levels. After the addition of the standard solution, the samples were mixed and purified.
A sample volume of 50 µL of plasma or brain homogenate was transferred to the clean Eppendorf tube and spiked with 5 µL of IS solution (1 µg/mL) obtaining the final concentration of 100 ng/mL. After 5 min of mixing (1500 rpm) proteins were precipitated using 200 µL ACN. After 10 min of sample shaking (1500 rpm), the incubation step was performed (10 min, 4 °C). The samples were then centrifuged (10,000 rpm, 10 min, 4 °C) and the supernatant was transferred to chromatographic vials for LC/MS/MS analysis.

In the case of `COC(=O)[C@@H]1[C@H]2C[C@H]3c4[nH]c5ccccc5c4CCN3C[C@@H]2CC[C@@H]1O` [Yohimbine], the “% of max response” value (α2A-adrenoceptor; antagonist vs brimonidine EC80, concentration 1e-11) is reported as 99.193% and 99.631%, the “% of max response” value (α2A-adrenoceptor; antagonist vs brimonidine EC80, concentration 1e-10) is reported as 89.6162% and the “% of max response” value (α2A-adrenoceptor; antagonist vs brimonidine EC80, concentration 1e-9) is reported as 70.6442% and 68.4607%. For the same compound, the “% of max response” value (α2A-adrenoceptor; antagonist vs brimonidine EC80, concentration 1e-8) was 17.048% and 15.1589%, the “% of max response” value (α2A-adrenoceptor; antagonist vs brimonidine EC80, concentration 1e-7) was 6.64% and the “% of max response” value (α2A-adrenoceptor; antagonist vs brimonidine EC80, concentration 1e-6) was 8.3079%.
With `Cl.N=C(N)N/N=C/c1c(Cl)cc(O)cc1Cl` [HGB] the “concentration in plasma (single sample)” value ([1]; 5 min) was 41.279 ng/mL and 54.6155 ng/mL and 66.8757 ng/mL, the “concentration in plasma (mean)” value ([1]; 5 min after administration) was 54.2567 ng/mL and the “concentration in plasma (single sample)” value ([1]; 15 min) was 105.888 ng/mL and 100.591 ng/mL and 95.109 ng/mL. For the same compound, the “concentration in plasma (mean)” value ([1]; 15 min after administration) was 100.53 ng/mL, the “concentration in plasma (single sample)” value ([1]; 30 min) was 16.0042 ng/mL and 23.9125 ng/mL and 20.5783 ng/mL and the “concentration in plasma (mean)” value ([1]; 30 min after administration) was 20.165 ng/mL. The “concentration in plasma (single sample)” value ([1]; 60 min) was 44.699 ng/mL and 41.9435 ng/mL and 39.1715 ng/mL, the “concentration in plasma (mean)” value ([1]; 60 min after administration) was 41.938 ng/mL and the “concentration in plasma (single sample)” value ([1]; 120 min) was 10.1897 ng/mL and 6.772 ng/mL and 9 ng/mL. For the same compound, the “concentration in plasma (mean)” value ([1]; 120 min after administration) was 8.6536 ng/mL, the “concentration in plasma (single sample)” value ([1]; 240 min) was 5.591 ng/mL and 8.595 ng/mL and 5.3874 ng/mL and the “concentration in plasma (mean)” value ([1]; 240 min after administration) was 6.524 ng/mL. For the same compound, the “concentration in brain (single sample)” value ([2]; 5 min) was 14.9497 ng/g and 11.5414 ng/g and 13.5496 ng/g, the “concentration in brain (mean)” value ([2]; 5 min after administration) was 13.3469 ng/g and the “concentration in brain (single sample)” value ([2]; 15 min) was 59.5505 ng/g and 64.4857 ng/g and 70.3065 ng/g. For the same compound, the “concentration in brain (mean)” value ([2]; 15 min after administration) was 64.7809 ng/g, the “concentration in brain (single sample)” value ([2]; 30 min) was 29.8349 ng/g and 23.7225 ng/g and 18.0636 ng/g and the “concentration in brain (mean)” value ([2]; 30 min after administration) was 23.8737 ng/g. For the same compound, the “concentration in brain (single sample)” value ([2]; 60 min) was 5.077 ng/g and 3.611 ng/g and 4.9468 ng/g, the “concentration in brain (mean)” value ([2]; 60 min after administration) was 4.545 ng/g and the “concentration in brain (single sample)” value ([2]; 120 min) was 3.263 ng/g and 4.746 ng/g and 3.8221 ng/g. The “concentration in brain (mean)” value ([2]; 120 min after administration) was 3.944 ng/g, the “concentration in brain (single sample)” value ([2]; 240 min) was 2.689 ng/g and 4.759 ng/g and 2.17 ng/g and the “concentration in brain (mean)” value ([2]; 240 min after administration) was 3.206 ng/g.
For `Brc1c(NC2=NCCN2)ccc2nccnc12` [brimonidine], the “% of max response” value (α2A-adrenoceptor; agonist, concentration 1e-11) was -0.4968% and 2.419% and -2.234% and 0.961%, the “% of max response” value (α2A-adrenoceptor; agonist, concentration 1e-10) was 2.567% and 0.2495% and -1.378% and 1.408% and the “% of max response” value (α2A-adrenoceptor; agonist, concentration 1e-9) was 4.21% and 2.461% and -0.5064% and 3.335%. The “% of max response” value (α2A-adrenoceptor; agonist, concentration 1e-8) was 48.0757% and 59.1796% and 30.9499% and 53.6276% and the “% of max response” value (α2A-adrenoceptor; agonist, concentration 1e-7) was 88.9964% and 81.4266%.
